Test results taken from patent US20200087258A1, “INHIBITOR OF CITRATE TRANSPORTER AND THEIR USE IN THERAPY” (Eternygen GmbH, priority 2017, published 2020).

Tests used:
INDY [1] = biological target: T1, INDY (Homo sapiens, UniProt Q86YT5); test: 14C-citrate uptake in HepG2 cells endogenously expressing INDY (NaCT); assay type: cell-based; conditions: endogenous INDY
Outline: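 HepG2 cells, which express INDY endogenously, were preincubated with compound for 5 min at 37 °C in pH 6.5 Na+ citrate uptake buffer. 14C-citrate ([…]) was then added for 90 min at 37 °C. After washing and NaOH lysis, uptake was measured by scintillation counting, with 5 mM citrate as positive control.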

GLUT1 = biological target: T2, GLUT1 (Homo sapiens, UniProt P11166); test: 3H-glucose uptake counter assay in Huh7 cells endogenously expressing GLUT1; assay type: cell-based; conditions: endogenous GLUT1
T2 construct: Huh-7 cells which endogenously express GLUT1; endogenous in cells; host or cells: Huh-7
T2 sequence (P11166 1-492): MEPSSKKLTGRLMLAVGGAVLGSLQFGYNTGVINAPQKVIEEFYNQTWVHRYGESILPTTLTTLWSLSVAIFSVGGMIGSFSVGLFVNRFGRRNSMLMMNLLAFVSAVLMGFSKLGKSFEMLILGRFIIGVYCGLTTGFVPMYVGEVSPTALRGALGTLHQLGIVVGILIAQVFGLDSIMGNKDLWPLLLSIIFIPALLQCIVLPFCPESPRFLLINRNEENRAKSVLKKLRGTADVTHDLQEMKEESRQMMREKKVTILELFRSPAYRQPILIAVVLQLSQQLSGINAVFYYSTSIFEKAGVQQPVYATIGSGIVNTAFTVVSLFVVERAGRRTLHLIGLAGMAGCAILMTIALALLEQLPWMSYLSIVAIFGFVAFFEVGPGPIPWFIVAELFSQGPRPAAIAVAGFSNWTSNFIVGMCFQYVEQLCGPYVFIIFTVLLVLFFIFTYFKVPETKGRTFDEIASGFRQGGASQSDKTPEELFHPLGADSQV
Protocol: (§1) The compound was obtained by screening of a library containing more than 50,000 lead-like compounds and fragments. The library was tested using a functional citrate uptake assay with HEK293 cells overexpressing recombinant human INDY. The following hit confirmation was conducted in the same assay system. To confirm the activity of selected compounds on the target INDY another cell assay was conducted. In this assay system citrate uptake was measured using HepG2 cells which endogenously express INDY. Furthermore selectivity of selected compounds was tested for two other transporters in different assay systems. The first transporter was the glutamate transporter GLT-1 tested in a glutamate uptake assays using HEK293 cells overexpressing recombinant human GLT-1. The second transporter was the glucose transporter GLUT1 tested in a glucose uptake assay using Huh-7 cells which endogenously express GLUT1. Compounds were considered to be selective with an at least 5-fold higher activity for INDY than for the other two transporters.
Cells were maintained in cell medium using cell culture grade flasks (CellSTACK Corning, 500 cm2 dishes or T175 depending on cell number). The selection antibiotic and G418 (800 μg/ml) was added during cultivation but not for seeding into assay plates. For splitting, cells were washed with PBS (w/o Ca2+, Mg2+, phenol red) and detached with Trypsin/EDTA. Throughout cultivation cells were kept sub-confluent. Detached cells (50,000 cells/well) were seeded in 96-well plates (white, clear bottom from Corning #655098) and incubated over night before usage in the assay. The following media were used. For HEK293 cells expressing INDY MEM (PAA)+10% FCS+1×P/S+2 mM L-Gln; for HEK293 cells expressing GLT-1 DMEM (Gibco)+10% FCS+400 µg/ml G418; for Huh7 cells DMEM (Gibco)+10% FCS+2 mM L-Gin (+1×P/S); for HepG2 cells MEM (PAA, Cat # E15-024)+10% FCS+2 mM L-Gin+1×NEAA+1 mM Na-Pyruvat […]
Glucose uptake in Huh7 cells was measured as a counter assay. […] After 20 min incubation at RT plates were measured using TopCount system, Perkin Elmer. […]

GLT-1 = biological target: T3, GLT-1 (Homo sapiens, UniProt P43004); test: 3H-glutamate uptake counter assay in HEK293 cells overexpressing human GLT-1; assay type: cell-based
T3 construct: host or cells: HEK293 (virus made in GP293 packaging cells)
T3 sequence (P43004 whole entry): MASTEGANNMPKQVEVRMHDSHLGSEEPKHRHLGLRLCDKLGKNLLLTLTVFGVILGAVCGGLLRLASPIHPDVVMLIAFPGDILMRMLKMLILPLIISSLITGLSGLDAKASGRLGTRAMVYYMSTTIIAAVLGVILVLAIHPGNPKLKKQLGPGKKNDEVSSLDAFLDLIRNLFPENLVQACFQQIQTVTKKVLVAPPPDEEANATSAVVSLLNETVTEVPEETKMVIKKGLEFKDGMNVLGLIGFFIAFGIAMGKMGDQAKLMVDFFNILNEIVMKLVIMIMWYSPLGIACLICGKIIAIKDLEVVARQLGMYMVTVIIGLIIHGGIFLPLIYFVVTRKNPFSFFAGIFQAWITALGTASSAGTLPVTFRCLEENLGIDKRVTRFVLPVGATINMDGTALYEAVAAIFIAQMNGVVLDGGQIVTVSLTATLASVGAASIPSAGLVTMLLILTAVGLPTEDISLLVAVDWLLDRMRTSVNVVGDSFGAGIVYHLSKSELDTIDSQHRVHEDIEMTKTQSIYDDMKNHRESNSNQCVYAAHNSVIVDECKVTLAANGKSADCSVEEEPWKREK
Protocol: as §1
Cells were maintained in cell medium using cell culture grade flasks (CellSTACK Corning, 500 cm2 dishes or T175 depending on cell number). The selection antibiotic and G418 (800 μg/ml) was added during cultivation but not for seeding into assay plates. For splitting, cells were washed with PBS (w/o Ca2+, Mg2+, phenol red) and detached with Trypsin/EDTA. Throughout cultivation cells were kept sub-confluent. Detached cells (50,000 cells/well) were seeded in 96-well plates (white, clear bottom from Corning #655098) and incubated over night before usage in the assay. The following media were used. For HEK293 cells expressing INDY MEM (PAA)+10% FCS+1×P/S+2 mM L-Gln; for HEK293 cells expressing GLT-1 DMEM (Gibco)+10% FCS+400 µg/ml G418; for Huh7 cells DMEM (Gibco)+10% FCS+2 mM L-Gin (+1×P/S); for HepG2 cells MEM (PAA, Cat # E15-024)+10% FCS+2 mM L-Gin+1×NEAA+1 mM Na-Pyruvat
The following assay buffers for the particular uptake reaction were used. Citrate uptake buffer: 120 mM NaCl, 5.4 mM KCl, 0.8 mM MgSO4, 5 mM glucose, 1.8 mM CaCl2, 25 mM Hepes, 25 mM MES, pH 6.5. Glutamate uptake buffer: HBSS, 1 mM CaCl2, 1 mM MgCl2, 20 mM Hepes pH 7.4. Glucose uptake buffer: 25 mM Hepes+25 mM MES pH 7.4, 120 mM NaCl, 5.4 mM KCl, 1.8 mM CaCl2, 0.8 mM MgSO4.
As a counter assay, Glutamate uptake by the GLT-1 transporter was used. The principle of the assay is to measure the uptake of ^3H labelled glutamate into HEK cells, which overexpress human GLT-1.
The generation of a GLT-1 cell line was performed as follows: human GLT11 isoform sv1 cDNA (Origene # RC223924) was cloned into vector pFB-Neo-CMV-hGLT1 using QIAfilter Plasmid Midi Kit (Qiagen). Virus was generated in GP293 packaging cells (transfection of plasmid with Lipofectamine 2000+OptiMEM). For transfection into HEK cells GP293, supernatant containing virus was passed through a 0.45 micron sterile filter and DEAE-dextran was added at […] final concentration. The solution was used to transfect HEK293 cells at 37° C., 8.5% CO2. After 24 h selection marker G418 at 400 μg/ml was added and cultivation medium performed in DMEM 10% FBS.
The assay was performed in a 96-well format using repeated washing steps, cell lysis and addition of scintillation fluid. Assay buffer was HBSS, 1 mM CaCl2, 1 mM MgCl2, […] pH 7.4. Cells were seeded into white clear-bottom 96-well plates (50,000/well) in the presence of Poly-D-Lysine and incubated at 37° C. for 16-24 hours. Subsequently the plates were washed once with assay buffer using automated washing/LS 405 Selectors, BioTek ending with a buffer volume of 40 μl. Then 5 μl of compound solution in assay buffer was added and incubated for 20 min at 37° C. in cell incubator, HERA cell Heraeus. Afterwards 10 μl of substrate 3H-Glu (3 nM) were added and incubated for another 20 min at 37° C. in cell incubator, HERAcell. Then the plates were washed once with 200 μl cold assay buffer and 150 μl scintillation fluid was added. […]

INDY [2] = biological target: T1, INDY; test: 14C-citrate uptake in HEK293 cells overexpressing recombinant human INDY (NaCT); assay type: cell-based; set-up: expressed in transfected cells; host or cells: HEK293
Outline: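 HEK293 cells overexpressing human NaCT, 50,000/well, preincubated 5-30 min at 37 °C with compound in pH 6.5 Na+ buffer. 14C-citrate ([…]) uptake then ran 20-90 min at 37 °C, followed by ice-cold washes, NaOH lysis and scintillation counting. 10 mM citrate served as positive control.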

Indy [3] = conditions: at 0.1 mM; cited from earlier work

T1 sequence (Q86YT5 whole entry): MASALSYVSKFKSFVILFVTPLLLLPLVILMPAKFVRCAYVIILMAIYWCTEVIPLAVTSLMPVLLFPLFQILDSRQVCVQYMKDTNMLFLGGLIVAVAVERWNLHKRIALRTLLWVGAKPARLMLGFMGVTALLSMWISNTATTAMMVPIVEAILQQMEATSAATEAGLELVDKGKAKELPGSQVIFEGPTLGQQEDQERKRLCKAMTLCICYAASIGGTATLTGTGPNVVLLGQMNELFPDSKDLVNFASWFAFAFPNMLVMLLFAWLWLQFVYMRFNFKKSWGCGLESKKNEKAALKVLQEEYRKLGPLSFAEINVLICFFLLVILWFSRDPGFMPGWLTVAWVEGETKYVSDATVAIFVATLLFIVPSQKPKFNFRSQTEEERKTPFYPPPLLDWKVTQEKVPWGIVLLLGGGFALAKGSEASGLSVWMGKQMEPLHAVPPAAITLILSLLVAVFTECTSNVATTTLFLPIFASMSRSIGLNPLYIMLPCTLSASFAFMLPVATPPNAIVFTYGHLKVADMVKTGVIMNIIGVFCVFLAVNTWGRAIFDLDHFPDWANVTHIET

| SMILES | IC50 (INDY [1]) [nM] | IC50 (GLUT1) [nM] | IC50 (GLT-1) [nM] | IC50 (INDY [2]) [nM] | inhibition of Indy (Indy [3]) |
| --- | --- | --- | --- | --- | --- |
| O=C(NCc1ccccc1F)C1CN(S(=O)(=O)/C=C/c2ccccc2)C1 [Example 1, N-[(2-fluorophenyl)methyl]-1-[(E)-phenylethenesulfonyl]azetidine-3-carboxamide] | 5400 | > 50000 | – | – | – |
| O=C(NCc1ccccc1F)C1CCN(S(=O)(=O)c2ccccc2)CC1 [Example 6, N-[(2-fluorophenyl)methyl]-1-(benzenesulfonyl) piperidine-4-carboxamide] | 5700 | > 50000 | > 50000 | – | – |
| O=C(NCc1ccccc1F)C1CCN(S(=O)(=O)c2ccc(OC(F)(F)F)cc2)CC1 [Example 29, N-[(2-fluorophenyl)methyl]-1-[4-(trifluoromethoxy)benzenesulfonyl]piperidine-4-carboxamide] | 400 | – | > 20000 | 500 | – |
| CC(C)(C)c1ccc(S(=O)(=O)N2CCC(C(=O)NCc3ccccn3)CC2)cc1 [Example 37, 1-(4-tert-butylbenzenesulfonyl)-N-[(pyridin-2-yl)methyl]piperidine-4-carboxamide] | 1100 | – | > 20000 | 800 | – |
| O=C(NCc1ccccn1)C1CCN(S(=O)(=O)c2ccc(Cl)cc2Cl)CC1 [Example 73, 1-(2,4-dichlorobenzenesulfonyl)-N-[(pyridin-2-yl)methyl]pipendine-4-carboxamide] | 1600 | – | > 20000 | 2400 | – |
| O=C(NCc1ccccc1O)C1CCN(S(=O)(=O)c2cc(Cl)cc(Cl)c2)CC1 [Example 79, 1-(3,5-dichlorobenzenesulfonyl)-N-[(2-hydroxyphenyl)methyl]pipendine-4-carboxamide] | 100 | – | > 20000 | 200 | – |
| O=C(NCc1ccccn1)C1CCN(S(=O)(=O)c2cc(Cl)cc(Br)c2)CC1 [Example 96, 1-(3-bromo-5-chlorobenzenesulfonyl)-N-[(pyridin-2-yl)methyl]piperidine-4-carboxamide] | 300 | – | > 20000 | 400 | – |
| O=C(NCc1ccccc1)C1CCN(S(=O)(=O)c2cc(Cl)cc(Cl)c2)CC1 [Example 103, N-benzyl-1-(3,5-dichlorobenzenesulfonyl)piperidine-4-carboxamide] | 100 | – | > 20000 | 100 | – |
| CC(F)c1cccc(S(=O)(=O)N2CCC(C(=O)NCc3ccccc3F)CC2)c1 (centres unmarked) [Example 112, 1-[3-(1-fluoroethyl)benzenesulfonyl]-N-[(2-fluorophenyl)methyl]piperidine-4-carboxamide] | 900 | – | > 20000 | 1400 | – |
| O=C(NCc1ccc(F)cc1)C1CCN(S(=O)(=O)c2cc(Cl)cc(Cl)c2)CC1 [Example 132, 1-(3,5-dichlorobenzenesulfonyl)-N-[(4-fluorophenyl)methyl]piperidine-4-carboxamide] | 700 | – | – | 2000 | – |
| O=C(O)CC(O)(C(=O)O)C(O)C(=O)O (centres unmarked) [hydroxycitrate] | – | – | – | – | 30-40% |

Now from value to compound, other results behind:

| IC50 (INDY [1]) [nM] | IC50 (GLUT1) [nM] | IC50 (GLT-1) [nM] | IC50 (INDY [2]) [nM] | SMILES | inhibition of Indy (Indy [3]) |
| --- | --- | --- | --- | --- | --- |
| 9000 | – | > 20000 | 6400 | CC(C)(C)c1ccc(S(=O)(=O)N2CC(C(=O)NCc3ccccc3Cl)C2)cc1 [Example 49, 1-(4-tert-butylbenzenesulfonyl)-N-[(2-chlorophenyl)methyl]azetidine-3-carboxamide] | – |
| 700 | – | > 20000 | 1300 | Cc1cc(C)cc(S(=O)(=O)N2CCC(C(=O)NCc3ccccn3)CC2)c1 [Example 60, 1-(3,5-dimethylbenzenesulfonyl)-N-[(pyridin-2-yl)methyl]piperidine-4-carboxamide] | – |
| 100 | – | > 20000 | 400 | Nc1ccccc1CNC(=O)C1CCN(S(=O)(=O)c2cc(Cl)cc(Cl)c2)CC1 [Example 81, N-[(2-aminophenyl)methyl]-1-(3,5-dichlorobenzenesulfonyl)pipendine-4-carboxamide] | – |
| 600 | – | > 20000 | 1100 | O=C(NCc1ccccc1O)C1CCN(S(=O)(=O)c2ccc(C(F)(F)F)cc2)CC1 [Example 82, N-[(2-hydroxyphenyl)methyl]-1-[4-(trifluoromethyl)benzenesulfonyl]pipendine-4-carboxamide] | – |
| 800 | – | > 20000 | 1000 | [N-]=[N+]=NCc1ccccc1CNC(=O)C1CCN(S(=O)(=O)c2cc(Cl)cc(Cl)c2)CC1 [Example 92, N-([2-(azidomethyl)phenyl]methyl)-1-(3,5-dichlorobenzenesulfonyl)piperidine-4-carboxamide] | – |
| 5200 | – | > 20000 | 2700 | CC(C)c1ccc(S(=O)(=O)N2CCC(C(=O)NCc3ccccn3)CC2)cc1 [Example 111, 1-[4-(propan-2-yl)benzenesulfonyl]-N-[(pyridin-2-yl)methyl]piperidine-4-carboxamide] | – |
